This note sets out measurements from patent US10973832B2, “Muscarinic M1 receptor agonists” (Heptares Therapeutics Limited, priority 2011, dated 2021).

Test [1] concerns Male Wistar rats. The test can be described thus: Novel object recognition. It is filed as in vivo. How it is done: The novel object recognition paradigm is based on the greater spontaneous exploration of a novel object, compared with a familiar object, shown by rodents (Ennaceur and Delacour, 1988). […] Male Wistar rats were assessed for cognitive ability in a test apparatus comprising an open-field arena placed in a sound-attenuated room under dimmed lighting. Images of the open-field were captured by digital camera, and viewed on a monitor in an adjoining room. Each rat was subjected to the procedure separately and care taken to remove any olfactory/taste cues by cleaning the arena and test objects with alcohol between trials and rats. All tests are video scored blind to treatment. Following a 10-minute habituation period, each rat was placed into the test arena in the presence of two identical objects (plastic shapes). Each rat was placed facing the same direction at the same position in the arena, and the time spent actively exploring the objects during a 5-minute training period (T1) was recorded. The rat is returned to its home cage between tests. After 24 hours, each rat was again placed in the test arena for 5 minutes (T2) in the presence of one of the familiar objects and a novel object, and the time spent exploring both objects again recorded. The presentation order and position of the objects (left/right) was randomized between rats to prevent bias from order or place preference. Doses of 3, 10 or 30 mg/kg of test compound were administered by oral gavage 90 minutes prior to training (n=8). Donepezil (0.1 mg/kg) and galanthamine (3 mg/kg) were administered via intraperitoneal injection 60 minutes prior to training. Vehicle-treated controls were employed for comparison.

For test [2], the target named is T1, human muscarinic M1 receptor (Homo sapiens, UniProt P11229).
T1 sequence (P11229 1-460): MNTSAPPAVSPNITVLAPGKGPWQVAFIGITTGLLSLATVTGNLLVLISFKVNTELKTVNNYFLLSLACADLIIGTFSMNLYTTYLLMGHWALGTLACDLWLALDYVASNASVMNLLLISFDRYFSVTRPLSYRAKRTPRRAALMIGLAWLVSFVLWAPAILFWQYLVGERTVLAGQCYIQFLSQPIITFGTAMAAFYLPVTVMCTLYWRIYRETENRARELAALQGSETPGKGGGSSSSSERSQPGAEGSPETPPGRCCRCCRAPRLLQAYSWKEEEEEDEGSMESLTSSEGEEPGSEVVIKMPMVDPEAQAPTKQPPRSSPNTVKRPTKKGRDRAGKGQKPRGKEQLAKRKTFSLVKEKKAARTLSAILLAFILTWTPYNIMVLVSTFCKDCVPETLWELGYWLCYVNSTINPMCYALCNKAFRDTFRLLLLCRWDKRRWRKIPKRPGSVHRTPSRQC
The test can be described thus: Phospho-ERK1/2 assay, muscarinic M1. The class given is cell-based. As to conditions: for EC50: CHO cells expressing human M1, phospho-ERK1/2 Alphascreen, read-out: pEC50 M1 (converted); for Emax: CHO, read-out: % Emax cf. ACh (M1). An outline of the steps: (§1)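 The assay used ERK1/2 phosphorylation as a common downstream read-out of Gq/11 and Gi/o receptor activation. CHO cells expressing each human receptor were exposed to agonist for five minutes at 37 °C after overnight serum starvation. Potency (pEC50) and maximal effect (Emax) came from the AlphaScreen signal.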

For test [3], the target named is T2, human muscarinic M2 receptor (Homo sapiens, UniProt P08172).
T2 sequence (P08172 1-466): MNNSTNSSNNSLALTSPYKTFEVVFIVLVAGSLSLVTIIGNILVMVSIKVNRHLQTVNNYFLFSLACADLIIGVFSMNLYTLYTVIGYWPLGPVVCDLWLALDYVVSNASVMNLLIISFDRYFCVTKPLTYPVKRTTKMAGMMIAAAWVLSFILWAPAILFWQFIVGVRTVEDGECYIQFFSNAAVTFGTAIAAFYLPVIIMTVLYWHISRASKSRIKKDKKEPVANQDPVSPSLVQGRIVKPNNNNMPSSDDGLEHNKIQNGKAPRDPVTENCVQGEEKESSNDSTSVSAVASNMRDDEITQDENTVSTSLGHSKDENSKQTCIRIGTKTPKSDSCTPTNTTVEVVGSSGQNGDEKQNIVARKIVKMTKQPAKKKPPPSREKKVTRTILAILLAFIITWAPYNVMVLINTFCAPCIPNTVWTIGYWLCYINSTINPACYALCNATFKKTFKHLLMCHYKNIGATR
The test can be described thus: Phospho-ERK1/2 assay, muscarinic M2. It is filed as cell-based. As to conditions: for EC50: CHO cells expressing human M2, phospho-ERK1/2 Alphascreen, read-out: pEC50 M2 (converted); for Emax: CHO, read-out: % Emax cf. ACh (M2). An outline of the steps: as §1
Background: Alpha assays give light when donor and acceptor beads are brought close together.

Test [4] has as its target T3, human muscarinic M3 receptor (Homo sapiens, UniProt P20309).
T3 construct: expressed in transfected cells
In words: Phospho-ERK1/2 assay, muscarinic M3. It is filed as cell-based. As to conditions: for EC50: CHO cells expressing human M3, phospho-ERK1/2 Alphascreen, read-out: pEC50 M3 (converted); for Emax: CHO, read-out: % Emax cf. ACh (M3). An outline of the steps: as §1

Test [5] addresses T4, human muscarinic M4 receptor (Homo sapiens, UniProt P08173).
T4 construct: expressed in transfected cells
T4 sequence (P08173 1-479): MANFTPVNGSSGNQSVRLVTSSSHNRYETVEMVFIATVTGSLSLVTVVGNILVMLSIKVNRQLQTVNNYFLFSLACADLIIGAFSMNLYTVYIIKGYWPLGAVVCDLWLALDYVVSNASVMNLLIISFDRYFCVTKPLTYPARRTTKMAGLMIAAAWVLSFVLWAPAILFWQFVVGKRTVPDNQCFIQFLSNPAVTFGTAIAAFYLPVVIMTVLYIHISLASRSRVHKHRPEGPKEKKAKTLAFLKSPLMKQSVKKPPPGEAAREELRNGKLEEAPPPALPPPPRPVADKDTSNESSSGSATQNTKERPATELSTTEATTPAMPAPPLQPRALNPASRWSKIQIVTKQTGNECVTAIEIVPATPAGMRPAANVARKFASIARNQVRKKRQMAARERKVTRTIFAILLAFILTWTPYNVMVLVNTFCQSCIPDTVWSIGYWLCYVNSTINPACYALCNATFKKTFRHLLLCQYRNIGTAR
In words: Phospho-ERK1/2 assay, muscarinic M4. The class given is cell-based. As to conditions: for EC50: CHO cells expressing human M4, phospho-ERK1/2 Alphascreen, read-out: pEC50 M4 (converted); for Emax: CHO, read-out: % Emax cf. ACh (M4). In short, it runs like this:
as §1

The subject of test [6] is CA1 region of rat hippocampal slices. The test can be described thus: CA1 cell firing (fEPSP amplitude). It is filed as cell-based. To be noted: five point cumulative concentration-response, 6 slices averaged. How it is done:
Rat hippocampal slices of […] thickness were cut in chilled (<4° C.) artificial cerebrospinal fluid (aCSF, composition in mM: NaCl 127, KCl 1.6, KH2PO4 1.24, MgSO4 1.3, CaCl2 2.4, NaHCO3 26 and D-glucose 10) using vibratome. Slices were maintained in oxygenated (95% O2/5% CO2) aCSF at room temperature for at least 1 hr prior to electrophysiological recording, after which they were transferred to an interface chamber and constantly perfused with warmed (30° C.) oxygenated aCSF at a flow rate of 1.5-3 ml·min−1. Schaffer collaterals were then stimulated (1-20 V, 0.1 ms pulse width, 0.033 Hz) with a concentric bipolar electrode to evoke field excitatory post synaptic potentials (fEPSPs) recorded from the stratum radiatum of the CA1 region.
Experiments were performed to examine the effect of compound compared to […] carbachol (CCh), on the amplitude of fEPSPs in the CA1 region of rat hippocampal slices. 1 μM CCh was initially applied until steady-state, followed by wash, before performing a five point cumulative concentration-response to compound. Each compound was tested on 6 slices and results averaged. Drug preparation; compound was dissolved in 100% DMSO at a stock concentration of 30 mM, and diluted according to requirements, carbamoylcholine chloride (CCh) was purchased from Sigma (Cat #C4382) and dissolved at a stock concentration of 1 mM in ddH2O.

The term Emax denotes the size of the effect at its maximum, as opposed to the concentration needed.

T3 sequence (P20309 whole entry): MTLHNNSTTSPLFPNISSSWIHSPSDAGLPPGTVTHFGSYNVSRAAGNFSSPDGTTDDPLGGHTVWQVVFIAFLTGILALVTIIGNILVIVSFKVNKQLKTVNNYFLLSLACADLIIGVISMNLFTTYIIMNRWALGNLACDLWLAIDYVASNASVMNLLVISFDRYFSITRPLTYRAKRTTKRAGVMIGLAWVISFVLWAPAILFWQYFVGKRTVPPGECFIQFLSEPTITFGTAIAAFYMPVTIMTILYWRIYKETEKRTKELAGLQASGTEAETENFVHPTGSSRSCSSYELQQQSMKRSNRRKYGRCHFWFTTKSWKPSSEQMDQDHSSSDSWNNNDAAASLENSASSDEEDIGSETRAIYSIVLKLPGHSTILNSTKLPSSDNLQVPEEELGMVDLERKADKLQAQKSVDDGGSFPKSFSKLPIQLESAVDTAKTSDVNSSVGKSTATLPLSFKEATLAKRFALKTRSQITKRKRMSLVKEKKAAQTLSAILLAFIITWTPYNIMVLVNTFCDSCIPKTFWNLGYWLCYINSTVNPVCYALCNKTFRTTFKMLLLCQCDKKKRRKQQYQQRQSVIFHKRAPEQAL

With `COc1cc2c(cc1OC)C(=O)C(CC1CCN(Cc3ccccc3)CC1)C2` (centres unmarked) [Donepezil, donepezil], the “novel object recognition memory vs vehicle-treated controls” value in test [1] (0.1 mg/kg intraperitoneal 60 minutes prior to training) was “without effect on novel object recognition”.
For `CCOC(=O)N1CCCC(N2CCC(F)(C(=O)NCC(C)C)CC2)CC1` (centres unmarked) [Example 40, ethyl 4-(4-fluoro-4-((2-methylpropyl)carbamoyl)piperidin-1-yl)azepane-1-carboxylate], the EC50 in test [2] is 0.0457 µM; in test [3] it was greater than 20 µM; in test [4], greater than 20 µM; in test [5], 0.851 µM; in test [6] it was 9.4 µM. Further, the maximal effect (Emax) was determined as 106% in test [2], 13% in test [3], 9% in test [4] and 89% in test [5].
As for `CCOC(=O)N1CCCC(N2CCC(C(=O)NCC(C)C)CC2)CC1` (centres unmarked) [Example 6, ethyl 4-(4-((2-methylpropyl)carbamoyl)piperidin-1-yl)azepane-1-carboxylate], the EC50 in test [2] is 0.0851 µM; in test [3], greater than 20 µM; in test [4] it was greater than 20 µM; in test [5], 1.05 µM; in test [6], 4.1 µM. Further, the maximal effect (Emax) in test [2] was found to be 113%; in test [3] it was 10%; in test [4], 33%; in test [5], 76%.
As to `COc1ccc2c3c1O[C@H]1C[C@@H](O)C=C[C@@]31CCN(C)C2` [galanthamine], in test [1] (3 mg/kg intraperitoneal 60 minutes prior to training, p<0.05), the “novel object recognition memory vs vehicle-treated controls” value is recorded as “significantly improved novel object recognition memory”.
